Laboratory results from US12139768B2, “Polymerase chain reaction primers and probes for Mycobacterium tuberculosis” (Rutgers, The State University of New Jersey, priority 2014, dated 2024).
Read-outs that look alike come from different tables or passages of the source.

Key:
[1] = test system: M.tb isolates; type: cell-based, Mycobacterium tuberculosis
[2] = test system: M.tb isolates; type: cell-based, Mycobacterium tuberculosis; remark: listed apart in the source
[3] = test system: rrs gene; type: binding; conditions: clinical DNA
[4] = test system: eis promoter region; type: binding; conditions: clinical DNA
[5] = eis promoter G(−10)A + NM (mixed)
[6] = rrs-A1401G + eis C(−14)T double mutant

NCC[C@H](O)C(=O)N[C@@H]1C[C@H](N)[C@@H](O[C@H]2O[C@H](CN)[C@@H](O)[C@H](O)[C@H]2O)[C@H](O)[C@H]1O[C@H]1O[C@H](CO)[C@@H](O)[C@H](N)[C@H]1O [AMK, Amikacin]
Susceptibility (LJ) [1]: S and R | Total number of isolates Susceptible (LJ) [1]: 513

NC[C@H]1O[C@H](O[C@H]2[C@H](O)[C@@H](O[C@H]3O[C@H](CO)[C@@H](O)[C@H](N)[C@H]3O)[C@H](N)C[C@@H]2N)[C@H](O)[C@@H](O)[C@@H]1O [KAN, Kanamycin]
Susceptibility (LJ) [1]: S and R | Total number of isolates Susceptible (LJ) [1]: 497 | Susceptibility (MGIT) [2]: R and S | Total number of isolates Susceptible (MGIT) [2]: 447

cacgACCGCCCGTCACGTCATGAAAGTCGGTcgtg (DNA CACGACCGCCCGTCACGTCATGAAAGTCGGTCGTG; molecular beacon, labels not given here, further chemistry not given here) [rrs-1400, SMB probe targeted against the rrs gene]
Mean Tm ([3]; No mutation (NM), wild type): 70.1 °C | Mean Tm ([3]; eis promoter C(−8) deletion): 70.10 °C | dTm (Tm difference of mutant from wild type) ([3]; eis promoter C(−8) deletion): 0.00 °C | Mean Tm ([3]; eis promoter C(−12)T): 70.15 °C | dTm (Tm difference of mutant from wild type) ([3]; eis promoter C(−12)T): −0.05 °C | Mean Tm ([3]; eis promoter C(−14)T): 70.10 °C | dTm (Tm difference of mutant from wild type) ([3]; eis promoter C(−14)T): 0.00 °C | Mean Tm ([3]; eis promoter G(−10)A): 70.20 °C | dTm (Tm difference of mutant from wild type) ([3]; eis promoter G(−10)A): −0.10 °C | Mean Tm [3, 5]: 70.20 °C | dTm (Tm difference of mutant from wild type) [3, 5]: −0.10 °C | Mean Tm ([3]; eis promoter G(−37)T): 70.20 °C | dTm (Tm difference of mutant from wild type) ([3]; eis promoter G(−37)T): −0.10 °C | Mean Tm ([3]; rrs gene A1401G): 66.20 °C | dTm (Tm difference of mutant from wild type) ([3]; rrs gene A1401G): 3.9 °C | dTm (Tm difference of mutant from wild type) ([3]; rrs gene A1401G + NM (mixed)): 3.90 °C | Mean Tm ([3]; rrs gene A1401G + NM (mixed, double Tm peak)): 66.20-70.10 °C | dTm (Tm difference of mutant from wild type) ([3]; rrs gene C1402T + NM (mixed)): 5.6 °C | Mean Tm ([3]; rrs gene C1402T + NM (mixed, double Tm peak)): 64.50-70.10 °C | Mean Tm [3, 6]: 66.30 °C | dTm (Tm difference of mutant from wild type) [3, 6]: 3.80 °C

ctcgcGGCATATGCCACAGTCGGATTCTcTGACgcgag (DNA CTCGCGGCATATGCCACAGTCGGATTCTCTGACGCGAG; molecular beacon, labels not given here, further chemistry not given here) [eis-2, SMB probe targeted against the eis promoter region]
Mean Tm ([4]; No mutation (NM), wild type): 69 °C | Mean Tm ([4]; No mutation (NM), wild type, listed as eis2): 69.00 °C | Mean Tm ([4]; eis promoter C(−8) deletion): 63.10 °C | dTm (Tm difference of mutant from wild type) ([4]; eis promoter C(−8) deletion): 5.90 °C | Mean Tm ([4]; eis promoter C(−12)T): 62.92 °C | dTm (Tm difference of mutant from wild type) ([4]; eis promoter C(−12)T): 6.08 °C | Mean Tm ([4]; eis promoter C(−14)T): 62.60 °C | dTm (Tm difference of mutant from wild type) ([4]; eis promoter C(−14)T): 6.40 °C | Mean Tm ([4]; eis promoter G(−10)A): 64.70 °C | dTm (Tm difference of mutant from wild type) ([4]; eis promoter G(−10)A): 4.30 °C | dTm (Tm difference of mutant from wild type) [4, 5]: 4.20 °C | Mean Tm ([4]; eis promoter G(−10)A + NM (mixed, double Tm peak for eis2)): 64.80-69.10 °C | Mean Tm ([4]; eis promoter G(−37)T): 69.10 °C | dTm (Tm difference of mutant from wild type) ([4]; eis promoter G(−37)T): −0.10 °C | Mean Tm ([4]; rrs gene A1401G): 69.10 °C | dTm (Tm difference of mutant from wild type) ([4]; rrs gene A1401G): −0.10 °C | Mean Tm ([4]; rrs gene A1401G + NM (mixed)): 69.10 °C | dTm (Tm difference of mutant from wild type) ([4]; rrs gene A1401G + NM (mixed)): −0.10 °C | Mean Tm ([4]; rrs gene C1402T + NM (mixed)): 69.20 °C | dTm (Tm difference of mutant from wild type) ([4]; rrs gene C1402T + NM (mixed)): −0.20 °C | Mean Tm [4, 6]: 62.50 °C | dTm (Tm difference of mutant from wild type) [4, 6]: 6.50 °C
